Measured values as given in ChEMBL document CHEMBL1142029, “Design, synthesis, and biological activity of novel PPARgamma ligands based on rosiglitazone and 15d-PGJ2” (Bioorg Med Chem Lett, 2005).
Calls of active or inactive are those of the source. The rule behind the calls is not given here.

What follows are compounds tested against T1, Peroxisome proliferator-activated receptor gamma (Homo sapiens) (UniProt P37231) (assay: Binding affinity for peroxisome proliferator-activated receptor gamma: active).
T1 sequence (whole entry): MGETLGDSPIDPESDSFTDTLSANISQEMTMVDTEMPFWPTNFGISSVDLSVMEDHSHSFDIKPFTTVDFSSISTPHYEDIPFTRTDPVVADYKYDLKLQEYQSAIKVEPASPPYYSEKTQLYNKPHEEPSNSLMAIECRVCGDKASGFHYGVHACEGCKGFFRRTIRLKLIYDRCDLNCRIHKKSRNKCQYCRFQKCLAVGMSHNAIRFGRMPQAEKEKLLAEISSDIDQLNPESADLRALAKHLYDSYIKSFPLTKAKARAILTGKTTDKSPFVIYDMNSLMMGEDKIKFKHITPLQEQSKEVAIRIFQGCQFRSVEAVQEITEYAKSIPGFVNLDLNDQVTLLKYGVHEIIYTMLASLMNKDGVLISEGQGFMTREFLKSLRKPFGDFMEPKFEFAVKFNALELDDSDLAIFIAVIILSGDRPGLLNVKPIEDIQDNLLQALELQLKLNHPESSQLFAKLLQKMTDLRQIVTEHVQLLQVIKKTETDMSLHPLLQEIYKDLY

Activity, active:
CN(CCOc1ccc(CCC(=O)O)cc1)c1ccccn1
CCCCCN(CCOc1ccc(CCC(=O)O)cc1)c1ccccn1
CCN(CCOc1ccc(CCC(=O)O)cc1)c1ccccn1
CCCCN(CCOc1ccc(CCC(=O)O)cc1)c1ccccn1
CCCCCCCCCCN(CCOc1ccc(CCC(=O)O)cc1)c1ccccn1
CCCN(CCOc1ccc(CCC(=O)O)cc1)c1ccccn1
CCCCCCN(CCOc1ccc(CCC(=O)O)cc1)c1ccccn1

The compounds below were run against T1, Peroxisome proliferator-activated receptor gamma (Homo sapiens) (assay: Binding affinity for peroxisome proliferator-activated receptor gamma: more active).

Activity, active:
CCCCCCCCN(CCOc1ccc(CCC(=O)O)cc1)c1ccccn1
CCCCCCCN(CCOc1ccc(CCC(=O)O)cc1)c1ccccn1

Each compound was assayed against T1, Peroxisome proliferator-activated receptor gamma (Homo sapiens) (assay: Binding affinity for peroxisome proliferator-activated receptor gamma: weak activity).

Activity, active:
O=C(O)CCc1ccc(OCCn2c3ccccc3c3ccncc32)cc1 Weak activity
O=C(O)CCc1ccc(OCCN(c2ccccn2)c2ccccn2)cc1 Weak activity
O=C(O)CCc1ccc(OCCN(c2ccccc2)c2ccccn2)cc1 Weak activity
